Test results taken from patent US20250136596A1, “MEMBRANE-ASSOCIATED TYROSINE- AND THREONINE-SPECIFIC CDC2-INHIBITORY KINASE (PKMYT1) INHIBITORS AND USES THEREOF” (Insilico Medicine IP Limited, priority 2022, published 2025).

These molecules were tested against PKMYT1 (Homo sapiens (Human), UniProt Q99640) (assay: PKMYT1 HTRF Assay). Settings: Tracer 178, GST-Tb; compound 10 μM to 0.5 nM; read-out: MYT1 HTRF IC50.
Assay type: binding
Description: Example A: PKMYT1 HTRF Assay
Compound serial dilution is performed by Echo, and the final concentrations vary from 10 μM to 0.5 nM. This was filled by the addition of 5 μL/well of Enzyme solution to the assay plate containing the compound. The plate was centrifuged at 1000 rpm for 1 minute, and incubate 15 minutes at 25 ? . Then 5 μL/well of tracer solution (Tracer 178) was added to initiate the reaction, and incubate for 60 minutes at 25° C. Next 5 μL GST-Tb was added into the assay plate, the plate was centrifuged at 1000 rpm for 1 minute, and incubate for 15 minutes at 25 ? . The assay plate was read on Envision.

PKMYT1, sequence (Q99640 whole entry): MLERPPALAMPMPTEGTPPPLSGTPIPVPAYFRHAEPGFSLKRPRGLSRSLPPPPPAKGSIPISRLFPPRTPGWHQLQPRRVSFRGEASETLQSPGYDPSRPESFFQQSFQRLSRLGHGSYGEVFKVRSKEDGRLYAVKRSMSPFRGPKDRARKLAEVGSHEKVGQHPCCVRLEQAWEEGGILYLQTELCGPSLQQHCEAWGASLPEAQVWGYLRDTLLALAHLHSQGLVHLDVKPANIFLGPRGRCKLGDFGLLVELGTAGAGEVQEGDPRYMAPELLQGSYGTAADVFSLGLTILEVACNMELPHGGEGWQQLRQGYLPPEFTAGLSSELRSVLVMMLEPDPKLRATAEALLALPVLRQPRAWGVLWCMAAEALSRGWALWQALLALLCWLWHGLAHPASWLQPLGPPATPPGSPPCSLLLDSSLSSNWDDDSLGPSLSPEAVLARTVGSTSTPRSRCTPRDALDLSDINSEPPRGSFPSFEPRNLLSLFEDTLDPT

Compared with `CCc1c(O)ccc(C)c1-c1cnc2[nH]c(-c3cnc(C)nc3)cc2c1C#N` [Example 91, (R)-5-(2-ethyl-3-hydroxy-6-methylphenyl)-2-(2-methylpyrimidin-5-yl)-1H-pyrrolo[2,3-b]pyridine-4-carbonitrile], `Cc1ncc(-c2cc3c(C#N)c(-c4c(C)ccc(O)c4C)cnc3[nH]2)cn1` (atropisomer, axis not shown) [Example 32, (S)-5-(3-hydroxy-2,6-dimethylphenyl)-2-(2-methylpyrimidin-5-yl)-1H-pyrrolo[2,3-b]pyridine-4-carbonitrile] is lower in IC50: 10 to 50 nM for the first, less than 10 nM for the second.

`Cc1ccc(O)c(C)c1-c1cnc2[nH]c(-c3cnn(CCCO)c3)cc2c1C#N` [Example 131, (S)-5-(3-hydroxy-2,6-dimethylphenyl)-2-(1-(3-hydroxypropyl)-1H-pyrazol-4-yl)-1H-pyrrolo[2,3-b]pyridine-4-carbonitrile] and `Cc1ccc(O)c(C)c1-c1cnc2[nH]c(-c3cnn(C)c(=O)c3)cc2c1C#N` [Example 65, 5-(3-hydroxy-2,6-dimethylphenyl)-2-(1-methyl-6-oxo-1,6-dihydropyridazin-4-yl)-1H-pyrrolo[2,3-b]pyridine-4-carbonitrile] cannot be ordered by IC50: less than 10 nM for the first, less than 10 nM for the second.

`Cc1ccc(O)c(C)c1-c1cnc2[nH]c(-c3cnc(N)nc3)cc2c1C#N` [Example 39, (R)-2-(2-aminopyrimidin-5-yl)-5-(3-hydroxy-2,6-dimethylphenyl)-1H-pyrrolo[2,3-b]pyridine-4-carbonitrile] and `CC#Cc1ncc(-c2cc3c(C#N)c(-c4c(C)ccc(O)c4C)cnc3[nH]2)cn1` [Example 104, (R)-5-(3-hydroxy-2,6-dimethylphenyl)-2-(2-(prop-1-yn-1-yl)pyrimidin-5-yl)-1H-pyrrolo[2,3-b]pyridine-4-carbonitrile] cannot be ordered by IC50: less than 10 nM for the first, less than 10 nM for the second.

First: Cc1ccc(O)c(C)c1-c1cnc2[nH]c(-c3ccn(C)c(=O)c3)cc2c1 [Example 9, 4-(5-(3-hydroxy-2,6-dimethylphenyl)-1H-pyrrolo[2,3-b]pyridin-2-yl)-1-methylpyridin-2 (1H)-one]
Second: Cc1cnc(-c2cc3cc(-c4c(C)ccc(O)c4C)cnc3[nH]2)cn1 [Example 29, 2,4-dimethyl-3-(2-(5-methylpyrazin-2-yl)-1H-pyrrolo[2,3-b]pyridin-5-yl)phenol]
The IC50 of the first is lower: 10 to 50 nM for the first, 50 to 500 nM for the second. The first is the more potent here.

`Cc1ccc(O)c(C)c1-c1cnc2[nH]c(-c3cnc(N4CC(C)(O)C4)nc3)cc2c1C#N` [Example 97, (R)-5-(3-hydroxy-2,6-dimethylphenyl)-2-(2-(3-hydroxy-3-methylazetidin-1-yl)pyrimidin-5-yl)-1H-pyrrolo[2,3-b]pyridine-4-carbonitrile] and `Cc1ccc(O)c(C)c1-c1cnc2[nH]c(-c3cnc(N4CCC4)nc3)cc2c1C#N` [Example 49, (R)-2-(2-(azetidin-1-yl)pyrimidin-5-y1)-5-(3-hydroxy-2,6-dimethylphenyl)-1H-pyrrolo[2,3-b]pyridine-4-carbonitrile] cannot be ordered by IC50: less than 10 nM for the first, less than 10 nM for the second.

`Cc1ncc(-c2[nH]c3ncc(-c4c(C)ccc(O)c4C)nc3c2C)cn1` [Example 13, 2,4-dimethyl-3-(7-methyl-6-(2-methylpyrimidin-5-yl)-5H-pyrrolo[2,3-b]pyrazin-2-yl)phenol] and `Cc1ncc(-c2[nH]c3ncc(-c4c(C)ccc(O)c4C)nc3c2F)cn1` [Example 12, 3-(7-fluoro-6-(2-methylpyrimidin-5-yl)-5H-pyrrolo[2,3-b]pyrazin-2-yl)-2,4-dimethylphenol] fall in the same range of IC50: 10 to 50 nM for the first, 10 to 50 nM for the second.

`Cc1ccc(O)c(C)c1-c1cnc2[nH]c(-c3cnc(N4CC(C)(O)C4)nc3)c(Cl)c2n1` [Example 17, 1-(5-(7-chloro-2-(3-hydroxy-2,6-dimethylphenyl)-5H-pyrrolo[2,3-b]pyrazin-6-yl)pyrimidin-2-yl)-3-methylazetidin-3-ol] and `Cc1ccc(O)c(C)c1-c1cnc2[nH]c(-c3cnc(N)nc3)c(C#CC(C)(C)O)c2n1` [Example 14, 3-(6-(2-aminopyrimidin-5-yl)-7-(3-hydroxy-3-methylbut-1-yn-1-yl)-5H-pyrrolo[2,3-b]pyrazin-2-yl)-2,4-dimethylphenol] cannot be ordered by IC50: less than 10 nM for the first, less than 10 nM for the second.

`Cc1ccc(O)c(C)c1-c1cnc2[nH]c(-c3cnc(N4CC(O)C(F)C4)nc3)cc2c1C#N` [Example 100, (R)-2-(2-((3S,4S)-3-fluoro-4-hydroxypyrrolidin-1-yl)pyrimidin-5-yl)-5-(3-hydroxy-2,6-dimethylphenyl)-1H-pyrrolo[2,3-b]pyridine-4-carbonitrile] and `Cc1ccc(O)c(C)c1-c1cnc2[nH]c(-c3cnc(N4CC(C(N)=O)C4)nc3)cc2c1C#N` [Example 71, (R)-1-(5-(4-cyano-5-(3-hydroxy-2,6-dimethylphenyl)-1H-pyrrolo[2,3-b]pyridin-2-yl)pyrimidin-2-yl)azetidine-3-carboxamide] cannot be ordered by IC50: less than 10 nM for the first, less than 10 nM for the second.

First: Cc1ccc(-c2cc3nc(-c4c(C)ccc(O)c4C)cnc3[nH]2)cn1 [Example 11, 2,4-dimethyl-3-(6-(6-methylpyridin-3-yl)-5H-pyrrolo[2,3-b]pyrazin-2-yl)phenol]
Second: Cc1ncc(-c2cc3nc(-c4c(C)ccc(O)c4C)cnc3[nH]2)s1 [Example 19, 2,4-dimethyl-3-(6-(2-methylthiazol-5-y1)-5H-pyrrolo[2,3-b]pyrazin-2-yl)phenol]
The IC50 of the first is lower: less than 10 nM for the first, 10 to 50 nM for the second.

First: C#Cc1c(-c2cnc(C)nc2)[nH]c2ncc(-c3c(C)ccc(O)c3C)c(C#N)c12 [Example 109, (S)-3-ethynyl-5-(3-hydroxy-2,6-dimethylphenyl)-2-(2-methylpyrimidin-5-yl)-1H-pyrrolo[2,3-b]pyridine-4-carbonitrile]
Second: Cc1ncc(-c2[nH]c3ncc(-c4c(C)ccc(O)c4C)c(C#N)c3c2C2CC2)cn1 [Example 108, 3-cyclopropyl-5-(3-hydroxy-2,6-dimethylphenyl)-2-(2-methylpyrimidin-5-yl)-1H-pyrrolo[2,3-b]pyridine-4-carbonitrile]
The IC50 of the first is lower: less than 10 nM for the first, 10 to 50 nM for the second. The first is the more potent here.

`Cc1ccc(O)c(C)c1-c1cnc2[nH]c(-c3cnc(N4C[C@@H]5C[C@H]4CO5)nc3)c(C#CC(C)(C)O)c2n1` [Example 21, 3-(6-(2-((1S,4S)-2-oxa-5-azabicyclo[2.2.1]heptan-5-yl)pyrimidin-5-yl)-7-(3-hydroxy-3-methylbut-1-yn-1-yl)-5H-pyrrolo[2,3-b]pyrazin-2-yl)-2,4-dimethylphenol] and `Cc1ccc(O)c(C)c1-c1cnc2[nH]c(-c3cnc(N4C[C@@H]5C[C@H]4CO5)nc3)cc2n1` [Example 128, 3-(6-(2-((1S,4S)-2-oxa-5-azabicyclo[2.2.1]heptan-5-yl)pyrimidin-5-yl)-5H-pyrrolo[2,3-b]pyrazin-2-yl)-2,4-dimethylphenol] cannot be ordered by IC50: less than 10 nM for the first, less than 10 nM for the second.

`Cc1ccc(O)c(C)c1-c1cnc2[nH]c(-c3cnc(NC4CC(O)C4)nc3)cc2c1C#N` [Example 102, (R)-5-(3-hydroxy-2,6-dimethylphenyl)-2-(2-((3-hydroxycyclobutyl)amino)pyrimidin-5-yl)-1H-pyrrolo[2,3-b]pyridine-4-carbonitrile] and `Cc1ccc(O)c(C)c1-c1cnc2[nH]c(-c3cnc(NC4COC4)nc3)cc2c1C#N` [Example 98, (R)-5-(3-hydroxy-2,6-dimethylphenyl)-2-(2-(oxetan-3-ylamino)pyrimidin-5-yl)-1H-pyrrolo[2,3-b]pyridine-4-carbonitrile] cannot be ordered by IC50: less than 10 nM for the first, less than 10 nM for the second.

Compared with `Cc1ncc(-c2cc3c(C(F)(F)F)c(-c4c(C)ccc(O)c4C)cnc3[nH]2)cn1` [Example 31, (R)-2,4-dimethyl-3-(2-(2-methylpyrimidin-5-yl)-4-(trifluoromethyl)-1H-pyrrolo[2,3-b]pyridin-5-yl)phenol], `Cc1ncc(-c2[nH]c3ncc(-c4c(C)ccc(O)c4C)cc3c2Cl)cn1` [Example 79, 3-(3-chloro-2-(2-methylpyrimidin-5-yl)-1H-pyrrolo[2,3-b]pyridin-5-yl)-2,4-dimethylphenol] is higher in IC50: less than 10 nM for the first, 10 to 50 nM for the second. The first is the more potent here.

`Cc1ccc(O)c(C)c1-c1cnc2[nH]c(-c3cnc(CN4CCCC4)nc3)cc2c1C#N` [Example 93, (R)-5-(3-hydroxy-2,6-dimethylphenyl)-2-(2-(pyrrolidin-1-ylmethyl)pyrimidin-5-yl)-1H-pyrrolo[2,3-b]pyridine-4-carbonitrile] and `Cc1ccc(O)c(C)c1-c1cnc2[nH]c(-c3cncnc3)cc2c1C#N` [Example 80, (R)-5-(3-hydroxy-2,6-dimethylphenyl)-2-(pyrimidin-5-yl)-1H-pyrrolo[2,3-b]pyridine-4-carbonitrile] cannot be ordered by IC50: less than 10 nM for the first, less than 10 nM for the second.

First: Cc1ncc(-c2[nH]c3ncc(-c4c(C)ccc(O)c4C)c(Cl)c3c2F)cn1 [Example 24, (S)-3-(4-chloro-3-fluoro-2-(2-methylpyrimidin-5-yl)-1H-pyrrolo[2,3-b]pyridin-5-yl)-2,4-dimethylphenol]
Second: Cc1ncc(-c2[nH]c3ncc(-c4c(C)ccc(O)c4C)cc3c2C#N)cn1 [Example 27, 5-(3-hydroxy-2,6-dimethylphenyl)-2-(2-methylpyrimidin-5-yl)-1H-pyrrolo[2,3-b]pyridine-3-carbonitrile]
The IC50 of the first is lower: less than 10 nM for the first, 10 to 50 nM for the second. The first is the more potent here.

`Cc1ccc(O)c(C)c1-c1cnc2[nH]c(C3=CCCOC3)cc2c1C#N` [Example 36, 2-(5,6-dihydro-2H-pyran-3-yl)-5-(3-hydroxy-2,6-dimethylphenyl)-1H-pyrrolo[2,3-b]pyridine-4-carbonitrile] and `Cc1ccc(O)c(C)c1-c1cnc2[nH]c(-c3cnc(C)c(=O)[nH]3)c(Cl)c2c1C#N` [Example 64, 3-chloro-5-(3-hydroxy-2,6-dimethylphenyl)-2-(5-methyl-6-oxo-1,6-dihydropyrazin-2-yl)-1H-pyrrolo[2,3-b]pyridine-4-carbonitrile] fall in the same range of IC50: 10 to 50 nM for the first, 10 to 50 nM for the second.

For `CC(=O)N1CC=C(c2cc3cc(-c4c(C)ccc(O)c4C)cnc3[nH]2)CC1` [Example 6, 1-(4-(5-(3-hydroxy-2,6-dimethylphenyl)-1H-pyrrolo[2,3-b]pyridin-2-yl)-3,6-dihydropyridin-1 (2H)-yl)ethan-1-one], the IC50 was 50 to 500 nM.
